7 compounds from BindingDB's records for doi:10.1021/cb400075f (Boehringer Ingelheim (Canada), 2013) can be followed below.

Molecules are shown by their SMILES.

The target in assay [1] is T1, Gag-Pol polyprotein (Human immunodeficiency virus type 1 group M subtype B (isolate NY5), UniProt P12497). The assay is described as follows: Capsid Assembly Assay.
For assay [2], the target named is T1, Gag-Pol polyprotein. Kind of assay: Capsid Assembly Assay. From the text: In vitro capsid assembly assay (CAA) was used in a HTS to identify potential inhibitors of capsid assembly.
The source holds these as a separate data set.

Compound `CN(C)CCCn1c(-c2c[nH]nc2-c2ccccc2)nc2cc(-c3ccc(C(=O)O)cc3)ccc21` [Benzimidazole Inhibitor, 1] returned a dissociation constant (Kd) on Gag-Pol polyprotein [1] of 43 µM. The compound further gave an IC50 at Gag-Pol polyprotein [2] of 6.1 µM. For `CN(C)CCCn1c(-c2c[nH]nc2-c2ccc(C(F)(F)F)cc2)nc2cc(-c3ccc(C(=O)O)cc3)ccc21` [Benzimidazole Inhibitor, 2], the dissociation constant (Kd) at Gag-Pol polyprotein [1] stood at 4.3 µM. Besides, on Gag-Pol polyprotein [2], the IC50 worked out at 1.2 µM. For the compound `O=C(O)c1ccc(-c2ccc3c(c2)nc(-c2c[nH]nc2-c2ccc(C(F)(F)F)cc2)n3CCCn2ccnc2)cc1` [Benzimidazole Inhibitor, 3], at Gag-Pol polyprotein [1], the Kd amounted to 8 µM. It took 1.4 µM to reach half-maximal inhibition against Gag-Pol polyprotein [2] (IC50). Take `O=C(O)c1ccc(-c2ccc3c(c2)nc(-c2c[nH]nc2-c2cccc(Cl)c2)n3CCCn2ccnc2)cc1` [Benzimidazole Inhibitor, 4]: on Gag-Pol polyprotein [2], the IC50 turned out to be 1.2 µM. With `O=C(O)c1ccc(-c2ccc3c(c2)nc(-c2c[nH]nc2-c2ccc(C(F)(F)F)cc2)n3CCCN2CCCCC2)cc1` [Benzimidazole Inhibitor, 5], at Gag-Pol polyprotein [2], the IC50 worked out at 0.67 µM. Take `O=C(O)c1ccc(-c2ccc3c(c2)nc(-c2c[nH]nc2-c2ccc(Cl)c(Cl)c2)n3CCCNC2CCCCC2)cc1` [Benzimidazole Inhibitor, 6]: the Kd on Gag-Pol polyprotein [1] amounted to 0.5 µM. This compound also had an IC50 on Gag-Pol polyprotein [2] of 0.35 µM.

At Gag-Pol polyprotein [2], `COCCN=CC1C(=O)N(C)c2ccc(C(F)(F)F)cc2N(c2ccccc2)C1=O` (stereo unspecified) [Benzodiazepine Inhibitor, 7] returned an IC50 of 0.89 µM.
